# Test results from patent US20220273588A1, “MONOAMINE OXIDASE B INHIBITORS FOR USE IN THE PREVENTION OR TREATMENT OF PROSTATE CARCINOMA” (TOXIE EUROPE INTELLIGENS KÉMIAI SZENZOROKAT KUTATÓ, …, priority 2019, published 2022).
# Assays:
# LNCaP cells [1] = experiment: CellTiter-Glo (ATP level) viability assay on LNCaP cells; format: cell-based, human; conditions: for viability of LNCaP cells, summary of the study: concentration-dependent manner, 48 h; for viability of LNCaP cells: 48 hours of treatment
# Method: (§1) RPMI-1640 (Lonza) medium with 10% heat-inactivated FBS (fetal bovine serum, Sigma) and 100 U/ml Penicillin/Streptomycin was used to grow the cells. Cells were treated with drugs freshly dissolved in RPMI medium. Treatment concentrations were determined by widening the concentration range. After 48 h of treatment, cell viability was also quantified using the MTS reduction assay (Promega) as well as a CellTiter-Glo kit (Promega) based on ATP level measurements.
# (§2) The CellTiter-Glo assay based on ATP level measurements was performed according to the manufacturer's protocol of pipetting 100 microliters of Celliter-Glo reagent into wells containing 100 microliters of medium, then shaking for 2 minutes and incubating for another 10 minutes. The luminescence signal was then detected with a PerkinElmer AlphaLisa instrument.
# To reproduce the literature data, we also used the unpaired t-test also used by Gordon et al (2014) to compare control and treated groups. […] For some results (LNCaP chlororlin MTS method and LNCaP rasagiline and selegiline CellTiter-Glo method) Kruskal-Wallis non-parametric one-way ANOVA method was used with Dunn test, while in other cases one-way ANOVA method was used with Bonferroni post hoc test.
# (§3) In our experiments, we performed three parallel experiments, and the experiments were repeated to increase the number of items. For the statistical analysis of two separate experiments the results were pooled, however, the absolute values obtained during the luminescence measurements cannot be used to combine the results. This is because the CellTiter-Glo reagent loses its activity during storage and possible thaw-freeze cycles. Thus, a CellTiter-Glo reagent from a single source can give different relative luminescence values (RLUs) at the same cell number in two different experiments performed at different times. However, in one experiment, the RLU reliably gives the cell number, and accordingly, the percentage viability value of the treated condition relative to the control RLU can be determined with certainty; values from different experimental series can be combined.
# (§4) During the evaluation, we normalized to the mean of the control of the given experiment, so the mean of the control was 100% and the percentage of each individual data point relative to the mean of the control was calculated accordingly. One-way ANOVA with Bonferroni post hoc test with p<0.05 significance level was used for statistical validation of viability changes as described above.
# [2] = system: androgen-sensitive and castration-resistant human prostate cells; conditions: literature preclinical study; cited from earlier work
# PC3 cells = experiment: CellTiter-Glo (ATP level) viability assay on PC3 cells; format: cell-based, human; conditions: 48 h; for viability of PC3 cells: CellTiter-Glo; for viability of PC3 cells, summary of the study: concentration-dependent manner
# Method: as §1, §2
# To support the applicability of the CellTiter-Glo viability assay method, we validated the method on a PC3 cell line. In this procedure, the measurement was performed with a given number of living cells per well, and the relative luminescence values obtained were plotted as a function of the cell number. A calibration line was placed on the data points by linear regression analysis, and based on the R2 value, it was determined that the relative luminescence value obtained during the measurement was directly proportional to the number of living cells (FIG. 1/C).
# as §3, §4
# human PC3 xenograft = experiment: Tumor growth in NSG SCID mouse human PC3 xenograft model; format: in vivo; conditions: 10 mg/kg i.p. once daily from day 14, day 21
# Excerpt: For our experiments, we used 25 3-month-old male NOD (Non Obese Diabetic) SCID (Severe Combined ImmunoDeficiency) Gamma mice (National Institute of Oncology Animal House). Immunodeficiency in these mice (Shultz et al, 1995) is associated with decreased T and B lymphocyte and NK cell function, as well as deficiency is developed in cytokine signaling pathways, in adaptive and innate immune systems. During the experiment, the animals were housed in the animal house of the János Szentágothai Research Center of the University of Pecs, and they were provided with standard rodent food and tap water ad libitum. The animals were kept at 20-24° C., 50-60% relative humidity, in a 12-12 hour dark-light cycle. […]
# RPMI-1640 (Lonza) medium with 10% heat-inactivated FBS (Sigma) and 100 U/ml Penicillin/Streptomycin was used to proliferate the PC3 cell line (Wesel, Germany), which was also used for in vitro experiments. […] Cell counts were determined after trypan blue staining with a LUNA II automated cell counter (Logos Biosystems) and 50 million cells were resuspended in 5 ml PBS. […]
# On days 4, 7, 11, 14, 18, and 21 of the experiment, the length (a) and width (b) of the growing tumor were measured with a caliper, and then the tumor volume was calculated using the following formula (J B Wu et al., J Clin Invest., 124, 2891-2908): […]
# LNCaP cells [3] = experiment: MTS reduction viability assay on LNCaP cells; format: cell-based, human; conditions: MTS method
# Method: as §1
# In the MTS reduction method (CellTiter 96® AQueous One Solution Cell Proliferation Assay, Promega Corp, Madison, […].), 20 microliters of MTS reagent was used per sample according to the manufacturer's protocol, and after 120 minutes of incubation, absorbance was measured at 492 nm with a microplate reader.
# In the studies, we modified the protocol of Gordon et al (2014) as follows: • A volume of 20 microliters per well was used from the MTS reagent as recommended by the manufacturer (10 microliters were used by Grodon et al.). • In our case, an incubation time of 120 min was used to increase accuracy (Gordon et al incubated for 60 min). […] During validation, measurements were performed with a given number of cells per well, and absorbance values were plotted as a function of cell number. A calibration line was placed on the data points by linear regression analysis and the R^2 coefficient of determination was determined. […]
# [4] = system: metastatic castration-resistant disease; conditions: patients; cited from earlier work
# [5] = system: PC3 prostate carcinoma cell line; experiment: CellTiter-Glo viability assay on PC3 cells, selegiline, docetaxel and combinations; format: cell-based, human; conditions: 48 hours
# Method: In our studies, we used a […] PC3 prostate carcinoma cell line. The culture of the cell line and the study of the effect of the combination of docetaxel and selegiline were performed as previously described, with the changes detailed below.
# Selegiline, docetaxel, and selegiline+docetaxel combination studies were performed in parallel, simultaneously, with the same reagents, on a cell population from the same cell culture. For the selegiline, docetaxel and selegiline+docetaxel combination studies, the following changes were applied from the protocol according to the examples of the application: • Treatments with selegiline alone were performed at concentrations ranging from 250 μM to 1 mM (250 μM, 500 μM, 750 μM, 1 mM), while docetaxel alone was administered at a concentration of 1 μM. For combination treatments, 1 μM docetaxel was added to the concentrations corresponding to the selegiline treatments (250 μM selegiline+1 μM docetaxel, 500 μM selegiline+1 μM docetaxel, 750 μM selegiline+1 μM docetaxel, 1 mM selegiline+1 μM docetaxel). • For docetaxel and combination treatments, a 0.01% dimethyl sulfoxide (DMSO) solution prepared with complete RPMI medium (10% FBS, 100 U/ml Penicillin/Streptomycin; solution for culturing and treating PC3 cells) was used as a control. This was used as a solvent control, corresponding to the use of DMSO to prepare a 10 mM docetaxel stock solution. Thus, the 1 μM docetaxel treatments we used also contained 0.01% DMSO. • The change in cell viability induced by selegiline, docetaxel, and combinations thereof was measured after 48 hours with the CellTiter-Glo kit as previously described. • The experiments were performed in 3 different series, and for evaluation they were combined with the previously described normalization. Briefly, during the evaluation, we normalized to the mean of the untreated control in the given experiment, so the mean of the control was 100% and the percentage of each individual data point relative to the mean of the control was calculated accordingly. Because treatments with selegiline and docetaxel alone or in combination were performed in one experiment, we normalized to the mean of the untreated control without DMSO. […] A Shapiro-Wilk and Kolmogorov-Smirnov normality test was performed on the data set, followed by a one-way ANOVA test with a Holm-Sidak's multiple comparison test.
smiles,measurement,setting,value
C#CCN(C)CCCOc1ccc(Cl)cc1Cl [clorgylin],"viability of LNCaP cells, CellTiter-Glo compared with MTS method","LNCaP cells [1]; 48 h clorgylin treatment, CellTiter-Glo",results similar to the MTS method
same,"viability of LNCaP cells, summary of the study",LNCaP cells [1],significantly reduced
same,growth and proliferation of androgen-sensitive and castration-resistant human prostate cells,[2],inhibited
same,growth of enzalutamide-resistant cells,[2],significantly reduced
same,viability of PC3 cells,PC3 cells; 1 mM,significantly reduced
same,viability of PC3 cells,PC3 cells; 100 micromolar,significantly reduced
same,"viability of PC3 cells, summary of the study",PC3 cells,significantly reduced
same,rate of tumor growth compared to the group treated with physiological saline,human PC3 xenograft,significantly reduced
same,viability of LNCaP cells,"LNCaP cells [3]; 100 micromolar, 48 h of treatment",significantly reduced
same,"viability of LNCaP cells, concentration dependence",LNCaP cells [3]; 48 h,concentration-dependent manner
CC(=O)O[C@@]12CO[C@@H]1C[C@H](O)[C@@]1(C)C(=O)[C@H](O)C3=C(C)[C@@H](OC(=O)[C@H](O)[C@@H](NC(=O)OC(C)(C)C)c4ccccc4)C[C@@](O)([C@@H](OC(=O)c4ccccc4)[C@H]21)C3(C)C [docetaxel],"increase of overall survival, average",[4],2-3 months
same,cell viability compared to the DMSO control,[5]; 1 μM,significantly reduced cell viability
NNCCc1ccccc1 [phenelzine],growth and proliferation of androgen-sensitive and castration-resistant human prostate cells,[2],inhibited
C#CCN[C@@H]1CCc2ccccc21 [rasagiline],viability of LNCaP cells,"LNCaP cells [1]; 1 mM, CellTiter-Glo",trend is also clearly observed
same,viability of LNCaP cells,"LNCaP cells [1]; 10 mM, CellTiter-Glo",significant viability-reducing effect
same,"viability of LNCaP cells, summary of the study",LNCaP cells [1],significantly reduced
same,viability of PC3 cells,PC3 cells; 1 mM,significant viability-reducing effect
same,viability of PC3 cells,PC3 cells; 10 mM,significant viability-reducing effect
same,"viability of PC3 cells, summary of the study",PC3 cells,significantly reduced
C#CCN(C)[C@H](C)Cc1ccccc1 [selegiline],viability of LNCaP cells,"LNCaP cells [1]; 1 mM, CellTiter-Glo",trend is also clearly observed
same,viability of LNCaP cells,"LNCaP cells [1]; 10 mM, CellTiter-Glo",significant viability-reducing effect
same,"viability of LNCaP cells, summary of the study",LNCaP cells [1],significantly reduced
same,viability of PC3 cells,PC3 cells; 1 mM,significant viability-reducing effect
same,viability of PC3 cells,PC3 cells; 10 mM,significant viability-reducing effect
same,"viability of PC3 cells, summary of the study",PC3 cells,significantly reduced
same,"viability of PC3 cells, concentration dependence",[5]; 250 μM to 1 mM,concentration-dependent manner
same,viability of PC3 cells,"[5]; 750 μM, Example 3 series",significant decrease in viability
same,"viability of PC3 cells, effect of Example 1","[5]; 1 mM, Example 3 series",reproduced
same,rate of tumor growth compared to the group treated with physiological saline,human PC3 xenograft,significantly reduced
